Reference: patent US10617690B2 (priority 2015, dated 2020)
Where a name gives a salt, the structure may show the parent alone.

How the values were obtained:
JAK1 protein kinase = JAK1 protein kinase (Homo sapiens, UniProt P23458); assay: biochemical; conditions: 38 uM ATP, 90 min
Procedure: In Vitro Activity Test of Jak1, Jak 2 and Jak 3 Kinase
Recombinant humanized JAK1, JAK2 and JAK3 […] were all purchased from Life technology. LANCE Ultra ULight™-JAK-1(Tyr1023) peptide and LANCE Eu-W1024 Anti-phosphotyrosine (PT66) were both purchased from PerkinElmer. Envision (PerkinElmer) was used to read a plate.
Three dilution of a test compound was prepared, and 11 final concentrations were obtained: 10 uM to 0.17 nM. Each concentration had two repeat wells. The content of DMSO in a detection reaction was 1%.
2 nM JAK1 protein kinase, 50 nM LANCE Ultra ULight™-JAK-1(Tyr1023) peptide, 38 uM ATP, 50 mM HEPES (pH7.5), 10 mM MgCl2, 1 mM EGTA, 2 mM DTT, and 0.01% BRIJ-35. Detection plate was White Proxiplate 384-Plus plate (PerkinElmer), the reaction was conducted for 90 min at room temperature, and reaction system was 10 ul.
10 ul detection reagent was added into the reaction plate, wherein the final concentration of LANCE Eu-W1024 Anti-phosphotyrosine (PT66) was 2 nM, the final concentration of EDTA was 10 mM, incubation was conducted for 60 min at room temperature, and the plate was read by the Envision.
The reading was converted into a suppression ratio as follow equation: (%)=([…])/(Max−Min)*100%. IC50 data was detected by 4 parametric curve fitting (Model 205 in XLFIT5, iDBS), see Table 1.

JAK2 protein kinase = JAK2 protein kinase (Homo sapiens, UniProt O60674); assay: biochemical; conditions: 12 uM ATP, 60 min;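 further: recombinant human JAK2 with ULight-labelled JAK-1(Tyr1023) peptide substrate, phosphorylation detected by TR-FRET using Eu-labelled anti-phosphotyrosine antibody, 1% DMSO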
From the text: (§1) Recombinant humanized JAK1, JAK2 and JAK3 protease were all purchased from Life technology. LANCE Ultra ULight™-JAK-1(Tyr1023) peptide and LANCE Eu-W1024 Anti-phosphotyrosine (PT66) were both purchased from PerkinElmer. Envision (PerkinElmer) was used to read a plate.
(§2) The reading was converted into a suppression ratio as follow equation: (%)=(Min−Ratio)/(Max−Min)*100%.

JAK3 = molecular target: T1, JAK3 (Homo sapiens, UniProt P52333); assay: In vitro activity test of JAK3 kinase (LANCE Ultra TR-FRET); format: biochemical;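 further: recombinant human JAK3 phosphorylating ULight-JAK-1(Tyr1023) peptide at 4 µM ATP, with 1% DMSO, detected by Eu-anti-phosphotyrosine TR-FRET on Envision and converted to percent inhibition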
T1 construct: purchased Life technology
T1 sequence (P52333 1-1124): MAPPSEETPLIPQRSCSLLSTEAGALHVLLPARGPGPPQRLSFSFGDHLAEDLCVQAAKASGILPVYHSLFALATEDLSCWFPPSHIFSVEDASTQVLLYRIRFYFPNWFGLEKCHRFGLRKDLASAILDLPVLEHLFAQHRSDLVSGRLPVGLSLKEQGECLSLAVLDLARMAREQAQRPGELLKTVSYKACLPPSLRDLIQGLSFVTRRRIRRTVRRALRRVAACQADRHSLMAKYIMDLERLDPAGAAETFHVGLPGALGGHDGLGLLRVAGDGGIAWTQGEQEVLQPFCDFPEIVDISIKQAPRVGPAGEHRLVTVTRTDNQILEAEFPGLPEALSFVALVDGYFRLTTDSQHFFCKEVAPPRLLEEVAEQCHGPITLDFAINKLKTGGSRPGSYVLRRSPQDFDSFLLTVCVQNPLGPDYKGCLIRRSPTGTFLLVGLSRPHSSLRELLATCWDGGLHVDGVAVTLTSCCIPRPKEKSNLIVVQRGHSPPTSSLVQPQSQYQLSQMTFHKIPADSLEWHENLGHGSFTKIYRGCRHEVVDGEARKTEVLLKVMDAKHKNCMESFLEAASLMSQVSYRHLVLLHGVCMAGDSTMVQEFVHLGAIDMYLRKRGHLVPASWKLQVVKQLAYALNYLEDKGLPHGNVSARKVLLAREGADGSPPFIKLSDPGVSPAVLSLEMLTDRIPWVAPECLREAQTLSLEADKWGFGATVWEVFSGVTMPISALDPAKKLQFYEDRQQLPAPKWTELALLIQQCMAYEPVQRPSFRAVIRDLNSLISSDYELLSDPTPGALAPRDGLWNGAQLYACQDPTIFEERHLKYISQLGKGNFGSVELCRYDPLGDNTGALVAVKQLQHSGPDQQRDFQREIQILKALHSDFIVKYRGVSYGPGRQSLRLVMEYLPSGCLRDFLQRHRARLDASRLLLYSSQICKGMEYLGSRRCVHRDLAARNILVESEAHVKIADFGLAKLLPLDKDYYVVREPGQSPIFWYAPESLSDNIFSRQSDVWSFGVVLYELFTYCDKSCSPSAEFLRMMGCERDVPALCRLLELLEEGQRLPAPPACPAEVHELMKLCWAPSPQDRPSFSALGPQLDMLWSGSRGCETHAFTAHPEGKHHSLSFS
Procedure: as §1
0.05 nM protein kinase, 50 nM LANCE Ultra ULight™-JAK-1(Tyr1023) peptide, 4 uM ATP, 50 mM HEPES (pH7.5), 10 mM MgCl2, 1 mM EGTA, 2 mM DTT, and 0.01% BRIJ-35.
as §2

Chain of JAK2 protein kinase (O60674 whole entry): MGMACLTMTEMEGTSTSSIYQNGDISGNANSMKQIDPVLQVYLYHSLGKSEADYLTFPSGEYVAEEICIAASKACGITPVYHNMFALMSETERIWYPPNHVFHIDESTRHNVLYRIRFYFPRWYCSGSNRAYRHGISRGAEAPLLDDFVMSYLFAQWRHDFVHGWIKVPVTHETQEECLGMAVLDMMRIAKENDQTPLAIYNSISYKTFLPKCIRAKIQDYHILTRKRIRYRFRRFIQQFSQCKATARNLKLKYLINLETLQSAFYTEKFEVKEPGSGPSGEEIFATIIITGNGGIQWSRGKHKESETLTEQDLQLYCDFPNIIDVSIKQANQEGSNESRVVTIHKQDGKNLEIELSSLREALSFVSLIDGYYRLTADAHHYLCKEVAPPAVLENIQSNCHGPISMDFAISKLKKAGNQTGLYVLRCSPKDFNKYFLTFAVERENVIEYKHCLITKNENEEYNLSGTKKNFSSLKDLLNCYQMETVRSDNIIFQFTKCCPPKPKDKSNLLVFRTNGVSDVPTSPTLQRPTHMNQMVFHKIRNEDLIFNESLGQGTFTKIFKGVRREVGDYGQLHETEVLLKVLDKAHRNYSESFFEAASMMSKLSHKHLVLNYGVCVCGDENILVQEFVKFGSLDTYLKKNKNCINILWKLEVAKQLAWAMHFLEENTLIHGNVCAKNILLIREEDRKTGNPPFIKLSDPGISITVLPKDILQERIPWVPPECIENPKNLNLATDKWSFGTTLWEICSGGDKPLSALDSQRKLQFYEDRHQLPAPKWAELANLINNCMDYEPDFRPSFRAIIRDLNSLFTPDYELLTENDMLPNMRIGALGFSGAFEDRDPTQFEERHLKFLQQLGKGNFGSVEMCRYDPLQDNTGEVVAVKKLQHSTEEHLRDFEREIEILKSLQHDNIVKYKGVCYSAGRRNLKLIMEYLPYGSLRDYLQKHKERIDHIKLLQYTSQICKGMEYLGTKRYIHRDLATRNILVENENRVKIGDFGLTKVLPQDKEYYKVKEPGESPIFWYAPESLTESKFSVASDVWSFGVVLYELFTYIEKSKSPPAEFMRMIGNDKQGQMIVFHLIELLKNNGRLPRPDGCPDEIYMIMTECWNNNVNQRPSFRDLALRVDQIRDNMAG
Chain of JAK1 protein kinase (P23458 whole entry): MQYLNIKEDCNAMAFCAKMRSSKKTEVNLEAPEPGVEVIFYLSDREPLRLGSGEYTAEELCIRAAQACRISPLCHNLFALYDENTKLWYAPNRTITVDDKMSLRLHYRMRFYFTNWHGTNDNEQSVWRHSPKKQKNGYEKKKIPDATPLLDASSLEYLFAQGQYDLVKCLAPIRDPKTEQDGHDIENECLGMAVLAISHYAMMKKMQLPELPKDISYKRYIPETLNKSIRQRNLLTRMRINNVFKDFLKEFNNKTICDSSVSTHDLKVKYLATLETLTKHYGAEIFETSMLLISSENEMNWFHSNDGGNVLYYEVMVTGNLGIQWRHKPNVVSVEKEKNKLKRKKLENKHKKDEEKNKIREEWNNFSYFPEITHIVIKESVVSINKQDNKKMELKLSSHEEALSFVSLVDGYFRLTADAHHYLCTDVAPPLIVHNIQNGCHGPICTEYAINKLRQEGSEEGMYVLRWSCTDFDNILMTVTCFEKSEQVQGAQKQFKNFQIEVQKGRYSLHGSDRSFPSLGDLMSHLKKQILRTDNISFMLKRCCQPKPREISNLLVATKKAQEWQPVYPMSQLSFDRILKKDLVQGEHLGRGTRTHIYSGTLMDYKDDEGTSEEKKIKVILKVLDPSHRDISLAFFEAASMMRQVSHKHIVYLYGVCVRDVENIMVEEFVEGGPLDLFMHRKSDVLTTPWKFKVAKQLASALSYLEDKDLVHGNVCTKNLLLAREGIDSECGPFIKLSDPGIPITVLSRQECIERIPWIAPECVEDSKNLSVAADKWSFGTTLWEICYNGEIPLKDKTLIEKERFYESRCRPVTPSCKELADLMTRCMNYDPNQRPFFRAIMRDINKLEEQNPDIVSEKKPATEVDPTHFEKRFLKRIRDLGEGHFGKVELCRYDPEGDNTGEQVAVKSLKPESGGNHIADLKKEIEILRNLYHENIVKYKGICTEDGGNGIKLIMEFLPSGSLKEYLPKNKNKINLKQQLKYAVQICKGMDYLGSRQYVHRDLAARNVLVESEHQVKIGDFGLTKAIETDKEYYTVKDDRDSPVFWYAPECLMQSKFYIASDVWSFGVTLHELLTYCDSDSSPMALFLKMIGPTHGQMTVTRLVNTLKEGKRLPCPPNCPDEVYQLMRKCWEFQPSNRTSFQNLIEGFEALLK

SMILES	IC50 (JAK1 protein kinase) [nM]	IC50 (JAK2 protein kinase) [nM]	IC50 (JAK3) [nM]
CN(c1ncnc2[nH]ccc12)N1CCCC(N2CCCC2=O)C1 (stereo not drawn) [WX29, 1-[1-[methyl(7H-pyrrolo[2,3-d]pyrimidin-4-yl)amino]-3-piperidinyl]pyrrolid-2-one]	> 1000	> 1000	100 to 1000
CN(c1ncnc2[nH]ccc12)N1CCC(C(=O)NCC#N)C1 (stereo not drawn) [WX30, N-(cyanomethyl)-1-[methyl(7H-pyrrolo[2,3-d]pyrimidin-4-yl)amino]pyrrolidyl-3-formamide]	< 10	10 to 100	10 to 100
CN(c1ncnc2[nH]ccc12)N1CCC(C(=O)NCC(F)(F)F)C1 (stereo not drawn) [WX31, 1-[methyl(7H-pyrrolo[2,3-d]pyrimidin-4-yl)amino]-N-(2,2,2-trifluoroethyl)pyrrolidyl-3-formamide]	< 10	10 to 100	10 to 100
CN(c1ncnc2[nH]ccc12)N1CCCN(C(=O)CC#N)CC1 [WX34, 3-(4-(methyl(7H-pyrrolo[2,3-d]pyrimidin-4-yl)amino)-1,4-diazepan-1-yl)-3-carbonyl-propionitrile]	100 to 1000	100 to 1000	100 to 1000
O=C(CC(F)(F)F)N1CCCN(Nc2ncnc3[nH]ccc23)CC1 [WX35, L-(4-((7H-pyrrolo[2,3-d]pyrimidin-4-yl)amino)-diazepan-1-yl)-3,3,3-trifluorotrifluoropropan-1-one]	> 1000	> 1000	> 1000
CN(c1ncnc2[nH]ccc12)N1CCCN(C(=O)CC(F)(F)F)CC1 [WX36]	100 to 1000	> 1000	> 1000
CN(c1ncnc2[nH]ccc12)N1CCCC(C)(C(=O)NCC#N)C1 (stereo not drawn) [WX37, N-(cyanomethyl)-3-methyl-1-[methyl(7H-pyrrolo[2,3-d]pyrimidie-yl)amino]piperidyl-3-formamide]	> 1000	> 1000	> 1000
CN(c1ncnc2[nH]ccc12)N1CCCC(C)(C(=O)NCC(F)(F)F)C1 (stereo not drawn) [WX38, 3-methyl-11-(methyl(7H-pyrrolo[2,3-d]pyrimidine-4-yl)amino)-N-(2,2,2-trifluoroethyl)piperidyl-3-formamide]	> 1000	> 1000	> 1000
O=C(NCC(F)(F)F)C1CN(Nc2ncnc3[nH]ccc23)CCO1 (stereo not drawn) [WX40, 4-((7H-pyrrolo[2,3-d]pyrimidin-4-yl)amino)-N-(2,2,2-trifluoroethyl)morpholine-2-form amide]	10 to 100	> 1000	> 1000
CN(c1ncnc2[nH]ccc12)N1CCOC(C(=O)NCC(F)(F)F)C1 (stereo not drawn) [WX41, 4-(methyl(7H-pyrrolo[2,3-d]pyrimidin-4-yl)amino)-N-(2,2,2-trifluoroethyl)morpholine-2-formamide]	10 to 100	100 to 1000	100 to 1000
COCNC(=O)C1CCCN(N(C)c2ncnc3[nH]ccc23)C1 (stereo not drawn) [WX42]	10 to 100	100 to 1000	10 to 100
CSCNC(=O)C1CCCN(N(C)c2ncnc3[nH]ccc23)C1 (stereo not drawn) [WX43]	< 10	10 to 100	10 to 100
CN(c1ncnc2[nH]ccc12)N1CCCC(CC#N)C1 (stereo not drawn) [WX44, 2-[1-[methyl[7H-pyrrole[2,3-d]pyrimidine-4-]amino]-3-piperidyl]acetonitrile]	10 to 100	100 to 1000	100 to 1000
CN(c1ncnc2[nH]ccc12)N1CCCC(CNC(=O)CC#N)C1 (stereo not drawn) [WX45]	10 to 100	100 to 1000	100 to 1000
CN(c1ncnc2[nH]ccc12)N1CCCC(C(=O)NCC(F)(F)C(F)(F)F)C1 (stereo not drawn) [WX46, 1-[methyl(7H-pyrrole[2,3-d]pyrimidine-4-)amino]-N-(2,2,3,3,3-pentafluoropropyl)piperidyl-3-formamide]	≤ 10	10 to 100	10 to 100
CN(c1ncnc2[nH]ccc12)N1CCCC(C(=O)NCC(F)F)C1 (stereo not drawn) [WX47, 1-[methyl(7H-pyrrole[2,3-d]pyrimidine-4-)amino]-N-(2,2-difluoroethyl)piperidyl-3-formamide]	≤ 10	10 to 100	< 10
CC(C)(C)OC(=O)N1CC2CN(Nc3ncnc4[nH]ccc34)CC2C1 (stereo not drawn) [WX48, 5-[[7H-pyrrole[2,3-d]pyrimidine-4-]amino]-hexahydropyrrolo[3,4-c]pyrrole-2(1H)-tert-butyl formate]	> 1000	> 1000	> 1000
CN(c1ncnc2[nH]ccc12)N1CCCC(C(=O)Nc2cccc(C(F)(F)F)c2)C1 (stereo not drawn) [WX53, 1-[methyl(7H-pyrrolo[2,3-d]pyrimidin-4-yl)amino]-N-[3-(trifluoromethyl)phenyl]piperidyl-3-formamide]	10 to 100	100 to 1000	100 to 1000
CN(c1ncnc2[nH]ccc12)N1CCCC(C(=O)N2CC(O)C2)C1 (stereo not drawn) [WX54]	100 to 1000	100 to 1000	100 to 1000
N#CCC(=O)N1CC2CCN(Nc3ncnc4[nH]ccc34)CC2C1 (stereo not drawn) [WX55, 3-[5-(7H-pyrrolo[2,3-d]pyrimidin-4-ylamino)-hexahydro-1H-pyrrolo[3,4-c]pyridin-2-yl]3-oxopropanenitrile]	100 to 1000	> 1000	> 1000
CN(c1ncnc2[nH]ccc12)N1CCCC(C(=O)NC2CC(F)(F)C2)C1 (stereo not drawn) [WX56]	< 10	> 1000	10 to 100
CN(c1ncnc2[nH]ccc12)N1CCCC(c2ncc(C(F)(F)F)[nH]2)C1 (stereo not drawn) [WX57, N-methyl-N-[3-[5-trifluoromethyl-1H-imidazol-2-yl]-1-piperidinyl]-7H-pyrrolo[2,3-d]pyrimidine-4-amine]	10 to 100	10 to 100	10 to 100
O=C(NCC(F)(F)F)C1CCCN(N(c2ncnc3[nH]ccc23)C2CC2)C1 (stereo not drawn) [WX58, 1-[cyclopropyl(7H-pyrrolo[2,3-d]pyrimidin-4-yl)amino]-N-(2,2,2-trifluoroethyl)piperidyl-3-formamide]	10 to 100	100 to 1000	100 to 1000
O=C(NCC(F)(F)F)C1CCC2(CC1)CCN(Nc1ncnc3[nH]ccc13)CC2 [WX59]	100 to 1000	> 1000	> 1000
